Data taken from patent US6130232A, “Substituted piperidine derivatives as muscarinic M3 receptor antagonists” (Banyu Pharmaceutical Coaltd, priority 1995, dated 2000).

How the values were obtained:
airway M3 receptor = target: T1, airway M3 receptor (Rattus norvegicus, UniProt P08483); assay: Antagonism to airway M3 receptor in isolated rat trachea; conditions: agonist carbachol
T1 construct: the trachea was isolated; from tissue; host or cells: isolated rat trachea (male SD rats)
Method: Male SD strain rats (200-300 g) were sacrificed by exsanguination and the trachea was isolated. Ring segments (2 mm wide) were cut out from the trachea and cut transversely at the anterior cartilage part to make open ring preparations. Each preparation was suspended in a Magnus tube filled with 5 ml of Krebs-Henseleit solution (gassed with 95% O2 -5% CO2, at 37° C.) at an initial tension of 1.0 g and a resting tension of 0.6 g. The tension of the preparation was recorded isometrically. After being equilibrated for an hour, the preparation was made to contract twice by treatment with 10^-4 M carbachol, and the second contraction induced by carbachol was used as the reference contraction. After the preparation was washed with fresh solution to be recovered to the base line, a test compound was administered thereto (or no treatment was given). Ten minutes later, carbachol (10^-8 to 10^-3 M) was cumulatively administered in three-fold increased doses to obtain a dose-response curve. The dose-response curve was plotted by expressing responses as percentages based on the reference contraction of the preparation as 100%. The antagonistic potency (KB value) of the test compound was determined from the degree of shift of the dose-response curve obtained by treatment with the test compound.

bradycardia = assay: Rat bradycardia (acetylcholine-induced); format: in vivo; conditions: for ED50: iv, 5 min, rat, i.v., acetylcholine 10 μg/kg, read-out: bradycardia ID50; for selectivity of bronchodilation over bradycardiac response, in words: in vivo, Table 3
Method: Eight- to eleven-weeks-old Sprague-Dawley strain rats (300-400 g) were anesthetized by intraperitoneal injection of urethane (750 mg/kg) and α-chloralose (37.5 mg/kg), and their right carotid artery, left juglar vein and airway of the rat were cannulated. […] After stable bradycardia induced by intravenous administration of acetylcholine (10 μg/kg) was observed, a test compound was intravenously administered. Five minutes later, bradycardia was induced once again with acetylcholine administration. The inhibition ratio to the bradyeardia obtained before the administration of the test compound was calculated, and the dose of the test compound which inhibited the bradycardia obtained before the drug administration by 50% was recorded as ID50 value.

[1] = test system: airway resistance increase; assay: Airway resistance enhancement in rats (acetylcholine-induced); format: in vivo, rat; conditions: for ED50: iv, 5 min, rat, i.v., acetylcholine 50 μg/kg, read-out: airway constriction ID50; for activities in both airway constriction and bradycardia, in words: in vivo, Table 3, both tests
Method: Eight- to eleven-weeks-old Sprague-Dawley strain rats (300-400 g) were anesthetized with urethane (750 mg/kg, i.p.) and α-chloralose (37.5 mg/kg, i.p.). The bronchus of each rat was intubated, and the right jugular vein was cannulated for drug administration. […] After stable airway resistance increase induced by intravenous administration of acetylcholine (50 μg/kg) was observed, a test compound was administered intravenously. After 5 minutes, once again the airway resistance increase was induced with acetylcholine. The inhibition ratio of the tested compound on the airway resistance increase before administration of the test compound was calculated, and the dose of the test compound which inhibited the airway resistance obtained before the drug administration by 50% was recorded as ID50 value.

bladder M3 receptor = target: T2, bladder M3 receptor (Rattus norvegicus, UniProt P08483); assay: Antagonism to bladder M3 receptor in isolated rat urinary bladder; conditions: agonist carbachol
T2 construct: the urinary bladder was isolated; from tissue; host or cells: isolated rat urinary bladder (male SD rats)
Method: Male SD strain rats (200-300 g) were sacrificed by exsanguination and the urinary bladder was isolated. The bladders were cut into four longitudinal unfold sections, to form about 10 mm-long preparations. Each preparation was suspended in a Magnus tube filled with 5 ml of Krebs-Henseleit solution (gassed with 95% O2 -5% CO2 at 32° C.) at an initial tension of 0.5 g. The tension in the preparation was isometrically recorded. After an hour's equilibration, the preparation was contracted twice with 10^-4 M carbachol, the second contraction being recorded as the reference contraction. After the preparation was washed with fresh solution and recovered to the base line, a test compound was administered thereto (or no treatment was given). Ten minutes later, carbachol (10^-8 to 10^-3 M) was cumulatively administered to the preparation from at a low concentration to three-fold increased dose to obtain a dose-response curve. The dose-response curve was plotted by expressing responses as percentages based on the reference contraction of the preparation which was set to be 100%. The antagonistic potency (KB value) of the test compound was determined from the degree of shift in the dose-response curve resulted from the treatment with the test compound.

right atrium M2 receptor = target: T3, right atrium M2 receptor (Rattus norvegicus, UniProt P10980); assay: Antagonism to M2 receptor in isolated rat right atrium; conditions: agonist carbachol
T3 construct: the right atrium was isolated; from tissue; host or cells: isolated rat right atrium (male SD rats)
T3 sequence (P10980 1-466): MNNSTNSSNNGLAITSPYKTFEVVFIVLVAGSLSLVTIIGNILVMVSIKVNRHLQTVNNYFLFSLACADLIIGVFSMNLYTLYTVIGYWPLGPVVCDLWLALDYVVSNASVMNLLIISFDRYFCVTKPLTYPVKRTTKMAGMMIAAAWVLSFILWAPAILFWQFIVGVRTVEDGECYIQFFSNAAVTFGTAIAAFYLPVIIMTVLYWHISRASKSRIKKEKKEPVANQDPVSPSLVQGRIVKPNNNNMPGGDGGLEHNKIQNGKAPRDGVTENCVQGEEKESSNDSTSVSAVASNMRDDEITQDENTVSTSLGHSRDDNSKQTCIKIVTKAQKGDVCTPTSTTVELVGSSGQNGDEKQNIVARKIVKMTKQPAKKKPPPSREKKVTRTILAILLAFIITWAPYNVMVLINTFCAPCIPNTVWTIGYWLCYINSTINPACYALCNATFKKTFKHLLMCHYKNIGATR
Method: This test was conducted following the method of Wess, et al. [British Journal of Pharmacology, Vol. 102, pp. 246-250]. Male SD strain rats (weighing 200-300 g) were sacrificed by exsanguination and the right atrium was isolated. […] The heart rate was recorded with a heart rate counter. After the preparation was equilibrated for 30 minutes, carbachol (10^-9 to 10^-6 M) was cumulatively administered from a low concentration to three-fold increased doses. Thus, a decrease in heart rate was measured to obtain a control dose-response curve. After the preparation was washed with fresh solution to recover the heart rate, a test compound was administered thereto. Ten minutes later, carbachol was cumulatively administered again. Carbachol-induced responses were expressed as percentages based on the heart rate before administration of carbachol as 100%.

ileum M3 receptor = target: T4, ileum M3 receptor (Rattus norvegicus, UniProt P08483); assay: Antagonism to intestinal tract M3 receptor in isolated rat ileum; conditions: agonist carbachol, read-out: KB ileus M3
T4 construct: the ileum was isolated and formed into 2 cm-long preparations; from tissue; host or cells: isolated rat ileum (male SD rats)
Method: Male SD strain rats (200-300 g) were sacrificed by exsanguination, and the ileum was isolated and formed into 2 cm-long preparations. […] Tension in the preparation was isotonically recorded. After an hour's equilibration, the preparation was contracted twice with 10^-6 M carbachol, the second contraction being recorded as the reference contraction. After the preparation was washed with fresh solution and recovered to the base line, a test compounds was administered thereto (or no treatment was given). Ten minutes later, carbachol (10^-8 to 10^-3 M) was cumulatively administered to the preparation from at a low concentration to three-fold increased dose to obtain a dose-response curve. The dose-response curve was plotted by expressing responses as percentages based on the reference contraction of the preparation which was set to be 100%.

muscarinic M3 receptor = target: T5, muscarinic M3 receptor (Rattus norvegicus, UniProt P08483); assay: Inhibition of M3 muscarinic receptor binding ([3H]-N-methylscopolamine, lacrimal gland membrane); conditions: for Ki: rat lacrimal gland membrane, 0.02 nM [3H]-N-methylscopolamine; for M1 / M3 / M2 / M3: ratio of binding Ki
T5 construct: the membrane preparations of the lacrimal glands were used as the test specimens; from tissue; host or cells: rat lacrimal gland membranes (male SD rats)
Method: (§1) Male SD strain rats weighing each 250 g-350 g [Japan Charles River K.K.] were sacrificed and their cerebral cortices, hearts and lacrimal glands were extirpated. The isolated organs were homogenized with Polytron (setting: 5) in an ice-cooled, 5-times diluted buffer solution (pH 7.4) containing 50 mM tris-hydrochloric acid, 5 mM magnesium chloride, 1 mM ethylenediamine-tetraacetic acid trisodium salt and 20% sucrose, followed by 15 minutes' centrifuge at 3,000×g and 4° C. After filtering the supernatant through gauze cloth, the filtrate was further subjected to an ultracentrifugation at 100,000×g at 4° C. for 45 minutes. The resultant precipitate was suspended in an ice-cooled buffer solution (pH 7.4, hereafter abbreviated as tris buffer) containing 50 mM tris-hydrochloric acid and 5 mM magnesium chloride. The suspension was subjected to an ultracentrifugation at 100,000×g at 4° C. for 45 minutes. The resultant precipitate was suspended in tris buffer at a concentration of 50 mg/ml and kept at -80° C. until the time of use. It was melted at the time of use in the binding inhibition tests.
(§2) Namely, a cerebral cortex membrane preparation, 1 nM [^3 H]-telenzepine ([^3 H]-Telenzepine, 85 Ci/mmol, New England Nuclear) and a test compound were incubated in 0.5 ml of tris buffer at room temperature (about 20-25° C.) for 120 minutes. Into the incubated system, 0.5 ml of ice-cooled tris buffer was added and suction-filtered with a glass filter (Packard Unifilter Plate GF/C). The filter was washed 4 times each with 1 ml of ice-cooled tris buffer. After drying the filter at 50° C. for an hour, a scintillator (Microscinti O: Packard Instrument Co., Inc.) was added and the radioactivity of the [^3 H]-telenzepine which was adsorbed onto the filter was measured with a microplate scintillation counter (Top Count: Packard Instrument Co., Inc.). Non-specific binding of [^3 H]-telenzepine to the receptors was determined under addition of 10 μM pirenzepine.
The test was conducted in the manner similar to above 2) M1 muscarinic receptor binding inhibition test, except that the membrane preparations of the lacrimal glands were used as the test specimens and 0.02 nM [^3 H]-N-methylscopolamine was used as the labelling ligand. Non-specific binding of [^3 H]-N-methylscopolamine to the receptor was determined under addition of 1 μM N-methylscopolamine.

muscarinic M2 receptor = target: T6, muscarinic M2 receptor (Rattus norvegicus, UniProt P10980); assay: Inhibition of M2 muscarinic receptor binding ([3H]-N-methylscopolamine, heart membrane); conditions: 0.2 nM [3H]-N-methylscopolamine
T6 construct: the membrane preparations of the heart were used as the test specimens; from tissue; host or cells: rat heart membranes (male SD rats)
T6 sequence (P10980 1-466): T3 sequence (P10980 1-466)
Method: Hereinafter action of compounds of the present invention to inhibit binding to muscarinic receptors and their in vitro and in vivo antagonism to muscarinic receptors are described, to concretely indicate utility of the present invention. As the labelling ligand for M1 muscarinic receptor, [^3 H]-telenzepine was used and as that for M2 and M3 muscarinic receptors, [^3 H]-N-methyl-scopolamine was used, and dissociation constants (Ki) were calculated from concentration of each of the tested compounds to inhibit binding of the labelling ligand by 50% (IC50).
as §1
These tests were performed according to a modification of the method of Hargreaves et al. (Br. J. Pharmacol. 107: pp. 494-501, 1992). […] After drying the filter at 50° C. for an hour, a scintillator (Microscinti O: Packard Instrument Co., Inc.) was added and the radioactivity of the [^3 H]-telenzepine which was adsorbed onto the filter was measured with a microplate scintillation counter (Top Count: Packard Instrument Co., Inc.). Non-specific binding of [^3 H]-telenzepine to the receptors was determined under addition of 10 μM pirenzepine. […]
The test was conducted in the manner similar to above 2) M1 muscarinic receptor binding inhibition test, except that the membrane preparations of the heart were used as the test specimens and 0.2 nM [^3 H]-N-methylscopolamine ([^3 H]-N-Methylscopolamine, 84 Ci/mmol, New England Nuclear) was used as the labelling ligand. Non-specific binding of [^3 H]-N-methylscopolamine to the receptors was determined under addition of 1 μM N-methylscopolamine.

muscarinic M1 receptor = target: T7, muscarinic M1 receptor (Rattus norvegicus, UniProt P08482); assay: Inhibition of M1 muscarinic receptor binding ([3H]-telenzepine, cerebral cortex membrane); conditions: 1 nM [3H]-telenzepine
T7 construct: a cerebral cortex membrane preparation, 1 nM; from tissue; host or cells: rat cerebral cortex membranes (male SD rats)
T7 sequence (P08482 1-460): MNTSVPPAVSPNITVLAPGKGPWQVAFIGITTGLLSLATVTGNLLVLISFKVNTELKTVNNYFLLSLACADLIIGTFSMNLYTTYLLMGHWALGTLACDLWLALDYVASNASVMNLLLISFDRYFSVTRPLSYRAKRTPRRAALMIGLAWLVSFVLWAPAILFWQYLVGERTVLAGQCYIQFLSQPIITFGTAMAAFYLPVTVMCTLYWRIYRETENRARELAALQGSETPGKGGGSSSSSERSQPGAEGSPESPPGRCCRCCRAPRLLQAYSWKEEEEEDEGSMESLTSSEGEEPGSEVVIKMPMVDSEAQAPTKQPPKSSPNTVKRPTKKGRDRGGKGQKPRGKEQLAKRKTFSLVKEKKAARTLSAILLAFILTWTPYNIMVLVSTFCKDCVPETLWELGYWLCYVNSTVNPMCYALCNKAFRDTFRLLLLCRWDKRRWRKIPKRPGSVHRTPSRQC
Method: as §1, §2

T5 sequence (P08483 whole entry): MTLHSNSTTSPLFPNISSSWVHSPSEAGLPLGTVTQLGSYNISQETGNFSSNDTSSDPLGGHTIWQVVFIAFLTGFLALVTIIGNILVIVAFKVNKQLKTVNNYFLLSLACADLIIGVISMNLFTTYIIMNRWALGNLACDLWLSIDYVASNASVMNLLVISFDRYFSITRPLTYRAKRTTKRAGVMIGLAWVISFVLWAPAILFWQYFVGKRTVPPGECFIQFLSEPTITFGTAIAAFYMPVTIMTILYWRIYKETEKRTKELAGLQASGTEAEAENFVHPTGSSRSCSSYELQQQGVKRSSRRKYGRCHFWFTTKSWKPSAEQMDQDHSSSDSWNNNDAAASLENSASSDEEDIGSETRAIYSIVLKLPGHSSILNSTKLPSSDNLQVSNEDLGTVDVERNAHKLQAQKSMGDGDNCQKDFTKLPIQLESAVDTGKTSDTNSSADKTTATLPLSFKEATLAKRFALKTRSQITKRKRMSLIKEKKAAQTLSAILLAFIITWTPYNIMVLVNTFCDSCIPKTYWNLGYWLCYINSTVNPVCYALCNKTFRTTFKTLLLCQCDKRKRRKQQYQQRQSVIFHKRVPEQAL
T1 sequence (P08483 whole entry): as above
T4 sequence (P08483 whole entry): as above
T2 sequence (P08483 whole entry): as above

Structure (SMILES)	Kb (airway M3 receptor)	ED50 (bradycardia)	ED50 [1]	Kb (bladder M3 receptor)	Kb (right atrium M2 receptor)	Kb (ileum M3 receptor)	Ki (muscarinic M3 receptor)	Ki (muscarinic M2 receptor)	Ki (muscarinic M1 receptor)	M1 / M3 (muscarinic M3 receptor)	M2 / M3 (muscarinic M3 receptor)	selectivity of bronchodilation over bradycardiac response, in words (bradycardia)	activities in both airway constriction and bradycardia, in words [1]
Cc1cccc(CN2CCC(NC(=O)[C@](O)(c3ccccc3)C3CCCC3)CC2)n1.Cl.Cl [Example 1, (2R)-N-[1-(6-methyl-2-pyridylmethyl)piperidin-4-yl]-2-cyclopentyl-2-hydroxy-2-phenylacetamide dihydrochloride]	4.4 nM	> 3000 µg/kg	37 µg/kg	3.6 nM	1100 nM	70 nM	2.9 nM	1100 nM					
COc1ccnc(CN2CCC(NC(=O)C(O)(c3ccccc3)C3CCCC3)CC2)c1 (stereo not shown) [Example 9, N-[1-(4-methoxy-2-pyridylmethyl)piperidin-4-yl]-2-cyclopentyl-2-hydroxy-2-phenylacetamide]							9.4 nM	1300 nM	29 nM	3.1	140		
O=C(NC1CCN(Cc2cccc(Cl)n2)CC1)C(O)(c1ccccc1)C1CCCC1 (stereo not shown) [Example 10, N-[1-(6-chloro-2-pyridylmethyl)piperidin-4-yl]-2-cyclopentyl-2-hydroxy-2-phenylacetamide]							7.6 nM	1300 nM	16 nM	2.1	170		
O=C(NC1CCN(Cc2cc(Cl)ccn2)CC1)C(O)(c1ccccc1)C1CCCC1 (stereo not shown) [Example 11, N-[1-(4-chloro-2-pyridylmethyl)piperidin-4-yl]-2-cylopentyl-2-hydroxy-2-phenylacetamide]							8.8 nM	730 nM	11 nM	1.3	83		
CN1[C@@H]2CC[C@H]1C[C@@H](OC(=O)C(CO)c1ccccc1)C2 (stereo partly shown) [atropine]		3.7 µg/kg	4.3 µg/kg									non-selective	potent activities in both cases
CC(C)[N+]1(C)[C@@H]2CC[C@H]1C[C@@H](OC(=O)C(CO)c1ccccc1)C2 (stereo partly shown) [ipratropium]		1.8 µg/kg	1.5 µg/kg									non-selective	potent activities in both cases
